Experimental data reported in patent US20240188568A1, “ENVIRONMENTALLY FRIENDLY COMPOSITIONS AND METHODS OF THEIR USE FOR PROMOTING THE GROWTH OF TURFGRASS OVER WEEDS” (Edaphix, LLC, priority 2021, published 2024).

What was measured:
turf weeds = test: Turfgrass test plots, Bozeman, MT: weed cover; assay type: in vivo
Description: (§1) Initially, a series of small turfgrass test plots was studied to gather preliminary information that helped guide the establishment of this larger, long-term study involving multiple rates and formulations. The test plots of this experiment were established in a weedy turfgrass location within the Bridger Creek Subdivision Community Association, Phase 1, Section 31, Township 1 South, Range 6 East, P.M.M., City of Bozeman, Gallatin County, Montana. The experimental site was established in a location with approximately 20 inches of annual precipitation, with annual maximum precipitation amounts observed in May and June. Winter conditions with frozen ground prevail during approximately 5 months of the year (November-March). Soils have high organic matter content in the upper six inches and are underlain by floodplain gravels and a water table 3-15 feet below ground surface. The primary turf weeds at this location in their order of relative prevalence are clover, dandelion, creeping Charlie, oxeye daisy, black medic and Canadian thistle. […]
(§2) The plots were typically 50 square feet (FIG. 1). Vegetation cover measurements were made using a frame placed on the turf and an estimate was calculated for the proportion of perennial grasses and weeds in each frame (FIG. 2). […] Since installation of the first plots, they have been monitored 5 times over a period of 21 months for vegetation cover. […]

perennial grasses = test: Turfgrass test plots, Bozeman, MT: healthy perennial grass cover and turf stress; assay type: in vivo; conditions: healthy perennial grass cover averaged over each treatment category, 21 months (Table 3)
Description: as §1, with “surface.” for “surface. The primary turf weeds at this location in their order of relative prevalence are clover, dandelion, creeping Charlie, oxeye daisy, black medic and Canadian thistle.”
as §2
The boron-only plots caused turf stress and yellowing. Immediately following application in monitoring, healthy and unhealthy/stressed turf was measured based on tissue color. […]

seed geranium = conditions: in combination with nitrogen, phosphorus, and potassium; Lee and others (1996); cited from earlier work
[1] = 2005 carcinogen assessment guidelines; cited from earlier work
French marigold = conditions: Jong et al. (1996); cited from earlier work
chlorophyllitic plants = conditions: as little as; cited from earlier work

Compound: O=C(O)COc1ccc(Cl)cc1Cl [2-4 D, 2,4-Dichlorophenoxyacetic acid]
- weed cover, typical (turf weeds; typical value over the first 2 years of monitoring (FIG. 3), control about 50%): ~20%
- Average Percent Ground Cover For 21-Month Monitoring Period, Weeds (turf weeds; weed cover averaged over each treatment category, 21 months (Table 3)): 13%
- Average Percent Ground Cover For 21-Month Monitoring Period, Turf Grass (perennial grasses): 80%

Compound: [Cu] [Cu, copper]
- concentration of nutrient solution inducing micronutrient toxicity symptoms (seed geranium): 500 ng/mL

Compound: [Mo] [Mo, molybdenum]
- concentration of nutrient solution inducing micronutrient toxicity symptoms (seed geranium): 250 ng/mL

Compound: [Zn] [Zn, zinc]
- concentration of nutrient solution inducing micronutrient toxicity symptoms (seed geranium): 500 ng/mL

Compound: OB(O)O [boric acid]
- U.S. EPA carcinogenicity classification [1]: not likely to be carcinogenic to humans

Compound: [B] [boron]
- concentration of nutrient solution inducing micronutrient toxicity symptoms (seed geranium): 500 ng/mL
- concentration inducing micro-nutrient toxicity (French marigold): 500 ng/mL

Compound: O=C(O)CNCP(=O)(O)O [glyphosate]
- application rate effective at causing photosynthetic disruption (chlorophyllitic plants): 0.75 pounds active ingredient per acre

Compound: borate salts
- U.S. EPA carcinogenicity classification [1]: not likely to be carcinogenic to humans
